These results are taken from US6130228A, “Polycyclic compounds” (priority 1995, dated 2000).

Structures are written as SMILES.

For data set [1], the target named is T1, Butyrylcholinesterase (BChE) (Equus caballus, UniProt P81908).
T1 construct: purchased Sigma c-7512
Nature of the data set: biochemical. Here is the method:
The following components were utilised:
Phosphate Buffer (0.1M, pH 7.4)
Made up to 500 ml with distilled H2 O, pH 7.4
1 ml of enzyme solution (i), was incubated with 2 ml PDS for 60 minutes at 0° C.
Components of the assay blank, controls and test solutions are provided below:
0.9 ml phosphate buffer (0.1M, pH 7.4)
0.85 ml phosphate buffer (0.1 M, pH 7.4)
0.05 ml Acetylthiocholine (5.2 mM)
(§1) 0.8 ml phosphate buffer (0.1M, pH 7.4)
Control was taken as 100%. Inhibitor was calculated as a percentage of control. A graph of Log of inhibitor conc. versus % control was plotted and IC50 values calculated by interpolation.

In data set [2] the test system is noradrenaline (NA) uptake. The data set can be described thus: Monoamine Uptake Inhibition Assay, noradrenaline (synaptosomal preparation). The data set is classed as biochemical, rat (Sprague Dawley). Particulars: for IC50: Table 3, read-out: NA UPTAKE INHIBITION
Here is the method: (§2) One male rat (Sprague Dawley) weighing approx. 200-250 g was sacrificed by cervical dislocation. The brain was dissected out and the cerebellum discarded. The brain was then weighed and 10 ml ice cold sucrose (0.32M) added per gram tissue. […] The pellet was discarded and the supernatant retained (crude synaptosomal preparation).
(§3) All tubes were set up in triplicate. […] 100 μl of the prepared synaptosomal preparation was added to each tube and incubated for 5 minutes in a shaking water bath at 37° C. Any reaction was stopped by plunging the tubes into an ice water bath. ^3 H NA (10^-7 M) or ^3 H 5-HT ([…]) was added to each tube and incubated for 5 minutes in a shaking water bath at 37° C. Any reaction was stopped by plunging the tubes into an ice-water bath. Accumulated monoamines were collected using a Brandell Cell Harvester under mild vacuum. Filters were rinsed (2×) using 4 ml of ice-cold 0.9% saline. Scintillation fluid was added (4 ml/tube). Radioactivity was measured on a scintillation counter.
(§4) Non-specific values were subtracted from total values. The control was taken as 100%. Drug effects were calculated as a percentage of control inhibitor value. A graph of log of drug concentration versus % control was plotted and IC50 values were calculated by interpolation.

In data set [3] the target is T2, Acetylcholinesterase (AChE) (Rattus norvegicus, UniProt P37136).
T2 construct: The brain was removed and homogenised; from tissue; host or cells: rat brain (male Sprague Dawley), Triton X100 detergent supernatant of the EDTA-buffer pellet
The data set can be described thus: biochemical. The data set is classed as biochemical, Male Rats (Sprague Dawley), brain. Particulars: for IC50: Table 2, read-out: AChE IC50. Here is the method: (i) Enzyme Source for AChE
5 Male Rats (Sprague Dawley) weighing approx 250 g were killed by CO2 overdose and cervical dislocation.
The brain was removed and homogenised (9 strokes at 840 rpm with 4 volumes of phosphate buffer pH 7.4+10 mM (EDTA) and centrifuged at 27,000 g for 30 minutes.
The supernatant was discarded and the pellet resuspended in phosphate buffer with 10 mM EDTA+1- Triton X100 (2 ml/g wet weight). The crude homogenate was centrifuged at 27,000 g for 30-40 minutes.
The pellet was discarded and the supernatant was dispensed into 0.5 ml aliquots and stored at -20° C. until required.
Phosphate Buffer (0.1M. pH 7.4)
Made up to 500 ml with distilled H2 O, pH 7.4.
0.5 ml aliquots of brain (enzyme solution) as prepared above were thawed out. 2 ml of phosphate buffer was added to each aliquot. 2 ml of the enzyme solution was incubated with 2 ml PDS for 60 minutes at 0° C. The composition of blank, control and test solutions are given below:
0.9 ml phosphate buffer (0.1 M, pH 7.4)
0.85 ml phosphate buffer (0.1M, pH 7.4)
0.05 ml acetylthiocholine (5.2 mM)
as §1
0.05 ml Acetylthiocholine 5.2 mM
Change in absorbance was measured at 30 second intervals for 3 minutes at […]. The control was taken as 100%. Inhibitor was calculated as a percentage of the control. A graph of Log of inhibitor conc. versus % control was plotted and IC5. values calculated by interpolation.

Another data set deals with 5-HT (serotonin) uptake. It counts as biochemical, rat (Sprague Dawley). The following applies: for IC50: Table 3, read-out: 5-HT UPTAKE INHIBITION
The method, then: as §2, §3, §4

The conditions of data set [4]: not believed to be irreversible in nature; cited from earlier work.

T1 sequence (P81908 whole entry): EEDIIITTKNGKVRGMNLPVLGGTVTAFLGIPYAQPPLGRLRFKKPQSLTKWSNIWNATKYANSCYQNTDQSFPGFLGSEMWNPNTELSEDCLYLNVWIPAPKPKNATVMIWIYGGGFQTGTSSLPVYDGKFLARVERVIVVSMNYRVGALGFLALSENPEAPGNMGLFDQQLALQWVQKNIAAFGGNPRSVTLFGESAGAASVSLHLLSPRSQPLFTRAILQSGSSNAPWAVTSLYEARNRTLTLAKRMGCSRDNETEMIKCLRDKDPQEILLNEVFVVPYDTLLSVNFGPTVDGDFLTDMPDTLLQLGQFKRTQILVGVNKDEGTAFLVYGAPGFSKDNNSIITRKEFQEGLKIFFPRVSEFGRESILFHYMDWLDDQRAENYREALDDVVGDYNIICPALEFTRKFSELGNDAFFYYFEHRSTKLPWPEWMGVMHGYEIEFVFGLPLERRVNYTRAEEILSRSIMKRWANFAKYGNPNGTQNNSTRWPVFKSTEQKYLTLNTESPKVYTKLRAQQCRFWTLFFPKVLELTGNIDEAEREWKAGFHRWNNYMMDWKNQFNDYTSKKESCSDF
T2 sequence (P37136 32-614): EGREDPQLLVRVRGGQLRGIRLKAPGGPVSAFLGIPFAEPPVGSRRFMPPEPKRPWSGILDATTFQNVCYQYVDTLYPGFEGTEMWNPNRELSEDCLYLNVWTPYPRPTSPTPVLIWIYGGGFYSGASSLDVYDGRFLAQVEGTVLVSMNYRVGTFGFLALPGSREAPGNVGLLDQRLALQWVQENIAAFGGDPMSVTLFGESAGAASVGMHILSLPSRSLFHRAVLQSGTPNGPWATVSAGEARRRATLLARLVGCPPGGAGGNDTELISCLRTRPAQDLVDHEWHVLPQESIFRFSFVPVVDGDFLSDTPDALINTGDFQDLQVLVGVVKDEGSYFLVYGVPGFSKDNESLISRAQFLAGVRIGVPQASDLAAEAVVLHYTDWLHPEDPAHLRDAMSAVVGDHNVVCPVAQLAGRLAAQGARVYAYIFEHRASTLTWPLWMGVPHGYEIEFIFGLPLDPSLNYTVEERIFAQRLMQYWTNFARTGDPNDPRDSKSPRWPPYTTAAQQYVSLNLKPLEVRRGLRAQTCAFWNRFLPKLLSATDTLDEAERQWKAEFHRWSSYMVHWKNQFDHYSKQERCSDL

As to `Nc1c2c(nc3c(Cl)cccc13)CCC2` [Compound 22, 9-Amino-5-chloro-2,3-dihydro-1H-cyclopenta[b] quinoline], the “BChE TACRINE RATIO” value in data set [1] is listed as 0.002. Also, the IC50 in data set [1] (Table 2, read-out: BChE IC50) was 14.5 µM; in data set [2], 3.1 µM; in data set [3], 3.5 µM; in the data set on 5-HT (serotonin) uptake, 104 µM. In addition, the “NA UPTAKE INHIBITION TACRINE RATIO” value in data set [2] stood at 2.161. The “AChE TACRINE RATIO” value in data set [3] is reported as 0.022. In addition, the “5-HT UPTAKE INHIBITION TACRINE RATIO” value in the data set on 5-HT (serotonin) uptake is reported as 0.073.
With `Nc1c2c(nc3ccccc13)CCC2` [Compound 29, 9-Amino-2,3-dihydro-[1H ]-cyclopenta-[b]-quinoline], the “BChE TACRINE RATIO” value in data set [1] is on record as 0.481. Moreover, in data set [2], the “NA UPTAKE INHIBITION TACRINE RATIO” value is on record as 11.167 and the IC50 amounted to 0.6 µM. Moreover, in data set [3], the “AChE TACRINE RATIO” value turned out to be 1.393 and the IC50 was 0.056 µM. In addition, in the data set with 5-HT (serotonin) uptake, the “5-HT UPTAKE INHIBITION TACRINE RATIO” value is 0.362 and the IC50 was determined as 21 µM.
With `Nc1c2c(nc3ccccc13)CCCC2` [TACRINE, reference compound], the IC50 in data set [2] stood at 6.7 µM. Moreover, in data set [4], the side effect entry is on record as “liver damage”.
